# Assays:
# Assay type in all cases: in vivo
# Senecio vulgaris = assay: post-emergence field trial under rows of apple trees, 150-200 L water/ha (Examples 10-12)
# Trifolium repens = assay: as above
# Setaria viridis = assay: as above
# Chenopodium album [1] = assay: as above
# Lolium multiflorum = assay: as above
# Lolium sp. = assay: post-emergence test, field trial (Examples 1-5); conditions: 7 d, FT; pelargonic acid 5440 g/ha, flazasulfuron 50 g/ha; 8 L/ha
# From the text: (§1) The expected activity of a given combination of two or three herbicides can be calculated as follows according to a calculation method by Colby (cf. COLBY, S. R.: “Calculating synergistic and antagonistic responses of herbicide combinations”, • Weeds 15, pages 20-22, 1967): • If X=% damage by herbicide (A) at an application rate of m g/ha, • Y=% damage by herbicide (B) at an application rate of n g/ha, • E=the expected damage by herbicides (A) and (B) at application rates of m and n […] and, • then for a combination:
# (§2) Individual compositions comprising pelargonic acid or flazasulfuron are compared with a herbicide composition according to the invention comprising pelargonic acid and flazasulfuron.
# (§3) Herbicidal activity was determined by performing a post-emergence test. […] The corresponding mixture was in the form of a spray liquor. Besides, spray liquors of individual compositions comprising pelargonic acid or flazasulfuron were used.
# (§4) Tests were performed on test fields (field trials) or in pots (pot trials).
# Anagallis arvensis = assay: post-emergence test, field trial (Examples 1-5); conditions: 3 d, FT; pelargonic acid 5440 g/ha, flazasulfuron 50 g/ha; 8 L/ha
# From the text: as §1, §2, §3, §4
# Chenopodium album [2] = assay: post-emergence test, field trial (Examples 1-5); conditions: 3 d, FT; pelargonic acid 10880 g/ha, flazasulfuron 25 g/ha; 16 L/ha
# From the text: as §1, §2, §3, §4
structure (smiles),measurement,setting,value
"CCCCCCCCC(=O)O [Pelargonic acid, nonanoic acid]",herbicidal effect (%),"Senecio vulgaris; Senecio vulgaris/6 d, 5440 g of active compound/ha",26%
same,herbicidal effect (%),"Senecio vulgaris; Senecio vulgaris/6 d, 8160 g of active compound/ha",29%
same,herbicidal effect (%),"Senecio vulgaris; Senecio vulgaris/6 d, 10880 g of active compound/ha",29%
same,herbicidal effect (%),"Senecio vulgaris; Senecio vulgaris/28 d, 5440 g of active compound/ha",9%
same,herbicidal effect (%),"Senecio vulgaris; Senecio vulgaris/28 d, 10880 g of active compound/ha",11%
same,herbicidal effect (%),"Senecio vulgaris; Senecio vulgaris/58 d, 10880 g of active compound/ha",33%
same,herbicidal effect (%),"Trifolium repens; Trifolium repens/7 d, 5440 g of active compound/ha",59%
same,herbicidal effect (%),"Trifolium repens; Trifolium repens/7 d, 8160 g of active compound/ha",73%
same,herbicidal effect (%),"Trifolium repens; Trifolium repens/7 d, 10880 g of active compound/ha",75%
same,herbicidal effect (%),"Trifolium repens; Trifolium repens/16 d, 5440 g of active compound/ha",9%
same,herbicidal effect (%),"Trifolium repens; Trifolium repens/16 d, 8160 g of active compound/ha",13%
same,herbicidal effect (%),"Trifolium repens; Trifolium repens/16 d, 10880 g of active compound/ha",23%
same,herbicidal effect (%),"Trifolium repens; Trifolium repens/26 d, 5440 g of active compound/ha",0%
same,herbicidal effect (%),"Trifolium repens; Trifolium repens/26 d, 8160 g of active compound/ha",0%
same,herbicidal effect (%),"Trifolium repens; Trifolium repens/26 d, 10880 g of active compound/ha",0%
same,herbicidal effect (%),"Trifolium repens; Trifolium repens/59 d, 5440 g of active compound/ha",0%
same,herbicidal effect (%),"Trifolium repens; Trifolium repens/59 d, 8160 g of active compound/ha",0%
same,herbicidal effect (%),"Trifolium repens; Trifolium repens/59 d, 10880 g of active compound/ha",0%
same,herbicidal effect (%),"Setaria viridis; Setaria viridis/6 d, 5440 g of active compound/ha",13%
same,herbicidal effect (%),"Setaria viridis; Setaria viridis/6 d, 8160 g of active compound/ha",35%
same,herbicidal effect (%),"Setaria viridis; Setaria viridis/6 d, 10880 g of active compound/ha",40%
same,herbicidal effect (%),"Setaria viridis; Setaria viridis/16 d, 5440 g of active compound/ha",43%
same,herbicidal effect (%),"Setaria viridis; Setaria viridis/16 d, 8160 g of active compound/ha",45%
same,herbicidal effect (%),"Setaria viridis; Setaria viridis/16 d, 10880 g of active compound/ha",48%
same,herbicidal effect (%),"Setaria viridis; Setaria viridis/30 d, 5440 g of active compound/ha",53%
same,herbicidal effect (%),"Setaria viridis; Setaria viridis/30 d, 8160 g of active compound/ha",53%
same,herbicidal effect (%),"Setaria viridis; Setaria viridis/30 d, 10880 g of active compound/ha",53%
same,herbicidal effect (%),"Setaria viridis; Setaria viridis/57 d, 5440 g of active compound/ha",0%
same,herbicidal effect (%),"Setaria viridis; Setaria viridis/57 d, 8160 g of active compound/ha",0%
same,herbicidal effect (%),"Setaria viridis; Setaria viridis/57 d, 10880 g of active compound/ha",0%
same,herbicidal effect (%),"Setaria viridis; Setaria viridis/78 d, 5440 g of active compound/ha",0%
same,herbicidal effect (%),"Setaria viridis; Setaria viridis/78 d, 8160 g of active compound/ha",0%
same,herbicidal effect (%),"Setaria viridis; Setaria viridis/78 d, 10880 g of active compound/ha",0%
same,herbicidal effect (%),"Chenopodium album [1]; Chenopodium album/6 d, 5440 g of active compound/ha",20%
same,herbicidal effect (%),"Chenopodium album [1]; Chenopodium album/6 d, 8160 g of active compound/ha",50%
same,herbicidal effect (%),"Chenopodium album [1]; Chenopodium album/6 d, 10880 g of active compound/ha",60%
same,herbicidal effect (%),"Chenopodium album [1]; Chenopodium album/16 d, 5440 g of active compound/ha",48%
same,herbicidal effect (%),"Chenopodium album [1]; Chenopodium album/16 d, 8160 g of active compound/ha",63%
same,herbicidal effect (%),"Chenopodium album [1]; Chenopodium album/16 d, 10880 g of active compound/ha",63%
same,herbicidal effect (%),"Chenopodium album [1]; Chenopodium album/30 d, 5440 g of active compound/ha",55%
same,herbicidal effect (%),"Chenopodium album [1]; Chenopodium album/30 d, 8160 g of active compound/ha",58%
same,herbicidal effect (%),"Chenopodium album [1]; Chenopodium album/30 d, 10880 g of active compound/ha",70%
same,herbicidal effect (%),"Chenopodium album [1]; Chenopodium album/57 d, 5440 g of active compound/ha",0%
same,herbicidal effect (%),"Chenopodium album [1]; Chenopodium album/57 d, 8160 g of active compound/ha",0%
same,herbicidal effect (%),"Chenopodium album [1]; Chenopodium album/57 d, 10880 g of active compound/ha",0%
same,herbicidal effect (%),"Chenopodium album [1]; Chenopodium album/78 d, 5440 g of active compound/ha",0%
same,herbicidal effect (%),"Chenopodium album [1]; Chenopodium album/78 d, 8160 g of active compound/ha",0%
same,herbicidal effect (%),"Chenopodium album [1]; Chenopodium album/78 d, 10880 g of active compound/ha",0%
same,herbicidal effect (%),"Lolium multiflorum; Lolium multiflorum/5 d, 5440 g of active compound/ha",3%
same,herbicidal effect (%),"Lolium multiflorum; Lolium multiflorum/5 d, 10880 g of active compound/ha",13%
same,herbicidal effect (%),"Lolium multiflorum; Lolium multiflorum/18 d, 5440 g of active compound/ha",0%
same,herbicidal effect (%),"Lolium multiflorum; Lolium multiflorum/18 d, 8160 g of active compound/ha",0%
same,herbicidal effect (%),"Lolium multiflorum; Lolium multiflorum/18 d, 10880 g of active compound/ha",0%
same,herbicidal effect (%),"Lolium multiflorum; Lolium multiflorum/32 d, 5440 g of active compound/ha",0%
same,herbicidal effect (%),"Lolium multiflorum; Lolium multiflorum/32 d, 8160 g of active compound/ha",0%
same,herbicidal effect (%),"Lolium multiflorum; Lolium multiflorum/32 d, 10880 g of active compound/ha",0%
same,herbicidal effect (%),"Lolium multiflorum; Lolium multiflorum/61 d, 5440 g of active compound/ha",0%
same,herbicidal effect (%),"Lolium multiflorum; Lolium multiflorum/61 d, 8160 g of active compound/ha",0%
same,herbicidal effect (%),"Lolium multiflorum; Lolium multiflorum/61 d, 10880 g of active compound/ha",0%
same,herbicidal effect (%),"Lolium multiflorum; Lolium multiflorum/88 d, 5440 g of active compound/ha",0%
same,herbicidal effect (%),"Lolium multiflorum; Lolium multiflorum/88 d, 8160 g of active compound/ha",0%
same,herbicidal effect (%),"Lolium multiflorum; Lolium multiflorum/88 d, 10880 g of active compound/ha",0%
same,herbicidal effect,Lolium sp.,18.8%
same,herbicidal effect,Anagallis arvensis,13.8%
same,herbicidal effect,Chenopodium album [2],40%

# From US20240365781A1, “SYNERGISTICALLY EFFECTIVE HERBICIDE COMPOSITION COMPRISING PELARGONIC ACID AND FLAZASULFURON” (Belchim Crop Protection NV, priority 2017, published 2024)
